Values joined by “and” are separate entries in the source; they are usually repeats but may differ in a detail not shown here. Identical values can stand only once. Results filed as inconclusive are left out. *1 amine or outer side, *2 acyl side, *3 side chain or, on linkers, in order; H or OH if unused. Where a SMILES comes first, the peptide text is derived from it. Bridges are numbered along the chain shown (N, C = ends). Roman numbers before positions name the chains, in order. [ ]: non-standard residue; d: D form. Actinocin(1to9) = Cc1c2oc3c(C)ccc(C(=O)[*:2])c3nc-2c(C(=O)[*:1])c(N)c1=O; NMeV = CN[CH](C(=O)O)C(C)C; Sar = CNCC(=O)O
System: BDF1 mice, s.c. Lewis lung carcinoma, T/C %
Experiment: NCI In Vivo Anticancer Drug Screen. Data for tumor model Lewis Lung Carcinoma (subcutaneous) in B6D2F1 (BDF1) mice
How it was run: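 The value reflects a ratio in which the treated cohort's survival time or tumour size is compared against mice receiving only vehicle.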

[1] = endpoint: mean tumor weight, dose: 25.0 mg/kg/injection, schedule: Q01DX011 (ip), vehicle: other, higher = larger tumour
[2] = endpoint: mean tumor weight, dose: 50.0 mg/kg/injection, schedule: Q01DX011 (ip), vehicle: other, higher = larger tumour
[3] = endpoint: mean tumor weight, dose: 100.0 mg/kg/injection, schedule: Q01DX011 (ip), vehicle: other, higher = larger tumour
[4] = endpoint: mean tumor weight, dose: 200.0 mg/kg/injection, schedule: Q01DX011 (ip), vehicle: other, higher = larger tumour

`Clc1ncnc2c1ncn2C1CCCO1` (centres undefined) was tested, and the T/C [1] was 91 % of control, the T/C [2] was 108 % of control and the T/C [3] was 81 % of control. For the same compound, the T/C [4] was 51 % of control and 62 % of control, the T/C (endpoint: mean tumor weight, dose: 400.0 mg/kg/injection, schedule: Q01DX011 (ip), vehicle: other, higher = larger tumour) was 57 % of control and the T/C (endpoint: mean tumor weight, dose: 600.0 mg/kg/injection, schedule: Q01DX011 (ip), vehicle: other, higher = larger tumour) was 42 % of control.

For `CCC(C)C1NC(=O)C(NC(=O)c2c3nc4c(C(=O)NC5C(=O)NC(C(C)CC)C(=O)N6CCCC6C(=O)N(C)CC(=O)N(C)C(C(C)C)C(=O)OC5C)ccc(C)c4oc-3c(C)c(=O)c2N)C(C)OC(=O)C(C(C)C)N(C)C(=O)CN(C)C(=O)C2CCCN2C1=O` (centres undefined) (I: TIP[Sar][NMeV] / II: TIP[Sar][NMeV]; ester I:1-I:C, II:1-II:C; linker I:N-II:N via Actinocin(1to9); configuration not given here), the T/C (endpoint: median survival time, dose: 12.5 micrograms/kg/injection, schedule: Q01DX009 (ip), vehicle: water, higher = longer survival) was 112 % of control, the T/C (endpoint: median survival time, dose: 25.0 micrograms/kg/injection, schedule: Q01DX009 (ip), vehicle: water, higher = longer survival) was 109 % of control and the T/C (endpoint: median survival time, dose: 50.0 micrograms/kg/injection, schedule: Q01DX009 (ip), vehicle: water, higher = longer survival) was 115 % of control. The T/C (endpoint: median survival time, dose: 75.0 micrograms/kg/injection, schedule: Q04DX003 (ip), vehicle: water, higher = longer survival) was 105 % of control, the T/C (endpoint: median survival time, dose: 150.0 micrograms/kg/injection, schedule: Q04DX003 (ip), vehicle: water, higher = longer survival) was 111 % of control and the T/C (endpoint: median survival time, dose: 300.0 micrograms/kg/injection, schedule: Q04DX003 (ip), vehicle: water, higher = longer survival) was 116 % of control.

`COC(CCC(C)C1OC23CC(OC(=O)CC(C(C)O)OC(=O)CC(O)(O2)C(C)CC3(C)C)C1C)c1cccc(O)c1` (centres undefined) was tested, and the T/C (endpoint: median survival time, dose: 25.0 micrograms/kg/injection, schedule: Q01DX009 (ip), vehicle: other, higher = longer survival) was 88 % of control, the T/C (endpoint: median survival time, dose: 50.0 micrograms/kg/injection, schedule: Q01DX009 (ip), vehicle: other, higher = longer survival) was 101 % of control and the T/C (endpoint: median survival time, dose: 100.0 micrograms/kg/injection, schedule: Q01DX009 (ip), vehicle: other, higher = longer survival) was 111 % of control.

For `Clc1cccc(Br)c1`, the T/C [1] was 95 % of control, the T/C [2] was 81 % of control and the T/C [3] was 58 % of control. The T/C [4] was 30 % of control.

For `COc1ccc(-c2oc3ccc(C)cc3c(=O)c2O)cc1`, the T/C (endpoint: mean tumor weight, dose: 1.9 mg/kg/injection, schedule: Q01DX011 (ip), vehicle: saline, higher = larger tumour) was 91 % of control, the T/C (endpoint: mean tumor weight, dose: 3.9 mg/kg/injection, schedule: Q01DX011 (ip), vehicle: saline, higher = larger tumour) was 100 % of control and the T/C (endpoint: mean tumor weight, dose: 7.8 mg/kg/injection, schedule: Q01DX011 (ip), vehicle: saline, higher = larger tumour) was 80 % of control. The T/C (endpoint: mean tumor weight, dose: 15.6 mg/kg/injection, schedule: Q01DX010 (ip), vehicle: saline, higher = larger tumour) was 71 % of control, the T/C (endpoint: mean tumor weight, dose: 15.6 mg/kg/injection, schedule: Q01DX011 (ip), vehicle: saline, higher = larger tumour) was 67 % of control and the T/C (endpoint: mean tumor weight, dose: 31.3 mg/kg/injection, schedule: Q01DX010 (ip), vehicle: saline, higher = larger tumour) was 82 % of control. The T/C (endpoint: mean tumor weight, dose: 62.5 mg/kg/injection, schedule: Q01DX010 (ip), vehicle: saline, higher = larger tumour) was 81 % of control and the T/C (endpoint: mean tumor weight, dose: 125.0 mg/kg/injection, schedule: Q01DX010 (ip), vehicle: saline, higher = larger tumour) was 84 % of control.

With `N/C(=N\Cl)C(Cl)(Cl)Cl` the T/C (endpoint: median survival time, dose: 6.25 mg/kg/injection, schedule: Q01DX009 (ip), vehicle: other, higher = longer survival) was 101 % of control, the T/C (endpoint: median survival time, dose: 12.5 mg/kg/injection, schedule: Q01DX009 (ip), vehicle: other, higher = longer survival) was 110 % of control and the T/C (endpoint: median survival time, dose: 25.0 mg/kg/injection, schedule: Q01DX009 (ip), vehicle: other, higher = longer survival) was 100 % of control. The T/C (endpoint: median survival time, dose: 50.0 mg/kg/injection, schedule: Q01DX009 (ip), vehicle: other, higher = longer survival) was 96 % of control.

With `CC1=C/C(O)CC(=O)Cc2nc(co2)C(=O)N2CCC=C2C(=O)OC(C(C)C)C(C)/C=C\C(=O)NC/C=C\1` (centres undefined) the T/C (endpoint: median survival time, dose: 0.5 micrograms/kg/injection, schedule: Q01DX009 (ip), vehicle: saline, higher = longer survival) was 103 % of control, the T/C (endpoint: median survival time, dose: 1.0 micrograms/kg/injection, schedule: Q01DX009 (ip), vehicle: saline, higher = longer survival) was 94 % of control and the T/C (endpoint: median survival time, dose: 2.0 micrograms/kg/injection, schedule: Q01DX009 (ip), vehicle: saline, higher = longer survival) was 98 % of control. For the same compound, the T/C (endpoint: median survival time, dose: 4.0 micrograms/kg/injection, schedule: Q01DX009 (ip), vehicle: saline, higher = longer survival) was 99 % of control.

For `CCN(CC)Cc1cc(Nc2c3ccccc3nc3cc(Cl)ccc23)ccc1O`, the T/C (endpoint: mean tumor weight, dose: 40.0 mg/kg/injection, schedule: Q01DX011 (ip), vehicle: other, higher = larger tumour) was 48 % of control.

In the case of `O=c1c(O)c(-c2ccc(O)c(O)c2)oc2cc(O)ccc12`, the T/C (endpoint: mean tumor weight, dose: 12.5 mg/kg/injection, schedule: Q01DX011 (ip), vehicle: saline, higher = larger tumour) was 99 % of control, the T/C (endpoint: mean tumor weight, dose: 25.0 mg/kg/injection, schedule: Q01DX011 (ip), vehicle: saline, higher = larger tumour) was 95 % of control and the T/C (endpoint: mean tumor weight, dose: 50.0 mg/kg/injection, schedule: Q01DX011 (ip), vehicle: saline, higher = larger tumour) was 91 % of control.

From PubChem BioAssay AID270 (DTP/NCI, 2004)
